Among the data in patent US11254668B2, “Pyrazolo[1,5-A]pyrazin-4-yl and related derivatives” (Pfizer Inc., priority 2017, dated 2022) are IC50 values, retold here.

Common to all, as to assay type: biochemical
One test deals with JAK2 (Homo sapiens (Human), UniProt O60674). Description: JAK Caliper Enzyme Assay at 1 mM ATP, JAK2. Here is the method:
(§1) Compounds of the invention were evaluated by in vitro methods to determine their respective ability to inhibit the JAK kinases (TYK2, JAK1, JAK2, JAK3).
(§2) The human JAK inhibitory activity was determined by using a microfluidic assay to monitor phosphorylation of a synthetic peptide by the recombinant human kinase domain of each of the four members of the JAK family, JAK1, JAK2, JAK3 and TYK2. […] Each assay condition was optimized for enzyme concentration and room temperature incubation time to obtain a conversion rate of 20% to 30% phosphorylated peptide product. Reactions were terminated by the addition of stop buffer containing EDTA. Utilizing the LabChip 3000 mobility shift technology (Caliper Life Science), each assay reaction was sampled to determine the level of phosphorylation. This technology is separation-based, allowing direct detection of fluorescently labeled substrates and products. Separations are controlled by a combination of vacuum pressure and electric field strength optimized for each peptide substrate.
(§3) JAK Caliper Enzyme Assay at 1mM ATP
(§4) Compounds were added to a 384-well plate.
(§5) The data was collected using the HTS Well Analyzer software from Caliper Life Sciences. The data output for data analysis is the percent product converted calculated on peak height (Equation 1). % product converted=100*((product)/(product+substrate)) Equation 1: […]
(§6) The percent effect at each compound concentration was calculated based on the positive and negative control well contained within each assay plate (Equation 2). […] The negative control wells contained DMSO alone (at the same concentration as the compound wells) that was used to set the baseline activity in the assay (i.e., uninhibited JAK1, JAK2, JAK3 or TYK2). % effect=100*([…](positive control-negative control)) Equation 2: […]
(§7) The percent effect was plotted against the compound concentration compound.

The target in another test is JAK1 (Homo sapiens (Human), UniProt P23458). Nature of the test: JAK Caliper Enzyme Assay at 1 mM ATP, JAK1. Here is the method:
as §1, §2, §3, §4, §5, §6, §7

Another test has as its target JAK3 (Homo sapiens (Human), UniProt P52333). Description: JAK Caliper Enzyme Assay at 1 mM ATP, JAK3. Here is the method:
as §1, §2, §3, §4, §5, §6, §7

A further test deals with TYK2 (Homo sapiens (Human), UniProt P29597). Nature of the test: JAK Caliper Enzyme Assay at 1 mM ATP, TYK2. Here is the method:
as §1, §2, §3, §4, §5, §6, §7

Where two headings read alike, the source gives them in different places.

Chain of JAK2 (O60674 849-1124): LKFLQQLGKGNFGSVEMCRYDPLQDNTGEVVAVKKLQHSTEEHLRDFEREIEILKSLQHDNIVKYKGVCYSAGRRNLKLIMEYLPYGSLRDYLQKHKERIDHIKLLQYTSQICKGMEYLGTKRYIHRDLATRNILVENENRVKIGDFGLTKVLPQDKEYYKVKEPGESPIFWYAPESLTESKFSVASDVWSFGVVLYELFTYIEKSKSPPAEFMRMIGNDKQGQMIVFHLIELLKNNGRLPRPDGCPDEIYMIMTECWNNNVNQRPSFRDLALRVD
Chain of JAK1 (P23458 875-1153): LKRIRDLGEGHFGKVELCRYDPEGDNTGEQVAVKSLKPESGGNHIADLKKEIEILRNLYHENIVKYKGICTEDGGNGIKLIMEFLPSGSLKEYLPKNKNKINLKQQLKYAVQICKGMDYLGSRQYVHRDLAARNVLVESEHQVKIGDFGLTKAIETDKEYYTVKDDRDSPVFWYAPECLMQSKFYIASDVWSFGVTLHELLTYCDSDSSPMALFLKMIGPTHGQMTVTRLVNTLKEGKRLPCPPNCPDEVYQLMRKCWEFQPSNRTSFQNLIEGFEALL
Chain of TYK2 (P29597 897-1176): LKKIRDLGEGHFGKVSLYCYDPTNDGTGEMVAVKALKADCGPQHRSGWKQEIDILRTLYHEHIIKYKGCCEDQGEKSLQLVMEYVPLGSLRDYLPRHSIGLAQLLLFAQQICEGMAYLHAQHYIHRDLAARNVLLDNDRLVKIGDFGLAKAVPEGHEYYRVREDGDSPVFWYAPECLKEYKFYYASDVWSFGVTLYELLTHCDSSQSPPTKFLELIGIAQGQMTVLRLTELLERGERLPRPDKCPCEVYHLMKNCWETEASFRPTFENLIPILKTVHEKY
Chain of JAK3 (P52333 822-1111): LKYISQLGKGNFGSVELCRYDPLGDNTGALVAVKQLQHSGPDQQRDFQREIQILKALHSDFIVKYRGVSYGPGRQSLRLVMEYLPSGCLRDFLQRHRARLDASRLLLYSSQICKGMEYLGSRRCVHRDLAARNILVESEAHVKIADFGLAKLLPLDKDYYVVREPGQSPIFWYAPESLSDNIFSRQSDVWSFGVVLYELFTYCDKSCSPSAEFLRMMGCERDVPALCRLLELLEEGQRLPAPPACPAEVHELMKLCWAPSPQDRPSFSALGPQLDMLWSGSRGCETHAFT

On to “2-[3-{4-[7-(1-methyl-1H-pyrazol-4-yl)-1,6-naphthyridin-5-yl]-1H-pyrazol-1-yl}-1-(2,2,2-trifluoroethyl)azetidin-3- [Example 5]”, for which the IC50 (in general, the concentration that inhibits the measured activity by half) is 2950 nM at JAK2, 2820 nM at JAK1, greater than 10000 nM on JAK3 and 1110 nM on TYK2.
For `N#CCC1(n2cc(-c3nc(-c4cn[nH]c4)cc4ncccc34)cn2)CN(CC(F)(F)F)C1` [Example 1, [3-{4-[7-(1H-pyrazol-4-yl)-1,6-naphthyridin-5-yl]-1H-pyrazol-1-yl}-1-(2,2,2-trifluoroethyl)azetidin-3-yl]acetonitrile] the same measures were 39 nM, 35 nM, 7140 nM and 15 nM.
The like results for `N#CC[C@H]1C[C@](CC#N)(n2cc(-c3nc(-c4cn[nH]c4)cc4ncccc34)cn2)C1` [Example 2, 2,2′-(trans-1-{4-[7-(1H-pyrazol-4-yl)-1,6-naphthyridin-5-yl]-1H-pyrazol-1-yl}cyclobutane-1,3-diyl)diacetonitrile] were, in that order, 127 nM, 86 nM, greater than 10000 nM and 50 nM.
For `N#CCC1CC(CC#N)(n2cc(-c3nc(-c4cn[nH]c4)cc4ncccc34)cn2)C1` (stereo not drawn) [Example 3, 2,2′-(cis-1-{4-[7-(1H-pyrazol-4-yl)-1,6-naphthyridin-5-yl]-1H-pyrazol-1-yl}cyclobutane-1,3-diyl)diacetonitrile] the same measures were 26 nM, 37 nM, 5980 nM and 14 nM.
With `Cn1cc(-c2cc3ncccc3c(-c3cnn(C4(CC#N)CN(CC(F)(F)F)C4)c3)n2)cn1` [Example 4, [3-{4-[7-(1-methyl-1H-pyrazol-4-yl)-1,6-naphthyridin-5-yl]-1H-pyrazol-1-yl}-1-(2,2,2-trifluoroethyl)azetidin-3-yl]acetonitrile], the IC50 at JAK2 came to 26 nM; on JAK1, 97 nM; on JAK3 it was 5170 nM; on TYK2, 17 nM.
For the compound `CO[C@H]1C[C@@](CC#N)(n2cc(-c3nc(-c4cnn(CCO)c4)cc4ncccc34)cn2)C1` [Example 8, [cis-1-(4-{7-[1-(2-hydroxyethyl)-1H-pyrazol-4-yl]-1,6-naphthyridin-5-yl}-1H-pyrazol-1-yl)-3-methoxycyclobutyl]acetonitrile], the IC50 at JAK2 was 126 nM; at JAK1, 661 nM; on JAK3, greater than 10000 nM; at TYK2 it was 130 nM.
The like results for `CO[C@H]1C[C@](CC#N)(n2cc(-c3nc(-c4cnn(CCO)c4)cc4ncccc34)cn2)C1` [Example 9, [trans-1-(4-{7-[1-(2-hydroxyethyl)-1H-pyrazol-4-yl]-1,6-naphthyridin-5-yl}-1H-pyrazol-1-yl)-3-methoxycyclobutyl]acetonitrile] were, in that order, 107 nM, 520 nM, greater than 10000 nM and 77 nM.
`N#CCC1(n2cc(-c3nc(-c4cnn(C5CCOCC5)c4)cc4ncccc34)cn2)CN(CC(F)(F)F)C1` [Example 11, [3-(4-{7-[1-(tetrahydro-2H-pyran-4-yl)-1H-pyrazol-4-yl]-1,6-naphthyridin-5-yl}-1H-pyrazol-1-yl)-1-(2,2,2-trifluoroethyl)azetidin-3-yl]acetonitrile]: the concentration for half-maximal inhibition (IC50) at JAK2 is 14 nM; on JAK1, 70 nM; at JAK3 it was 2620 nM; at TYK2 it was 21 nM.
`CO[C@H]1C[C@@](CC#N)(n2cc(-c3nc(-c4cc(CO)n[nH]4)cc4ncccc34)cn2)C1` [Example 12, [cis-1-(4-{7-[3-(hydroxymethyl)-1H-pyrazol-5-yl]-1,6-naphthyridin-5-yl}-1H-pyrazol-1-yl)-3-methoxycyclobutyl]acetonitrile]: the IC50 was 101 nM on JAK2, 407 nM at JAK1, greater than 10000 nM on JAK3 and 63 nM at TYK2.
For `CO[C@H]1C[C@](CC#N)(n2cc(-c3nc(-c4cc(CO)n[nH]4)cc4ncccc34)cn2)C1` [Example 13, [trans-1-(4-{7-[3-(hydroxymethyl)-1H-pyrazol-5-yl]-1,6-naphthyridin-5-yl}-1H-pyrazol-1-yl)-3-methoxycyclobutyl]acetonitrile] the same measures were 82 nM, 266 nM, greater than 10000 nM and 42 nM.
`N#CCC1(n2ccc(-c3nc(Cl)cc4ncccc34)n2)CN(CC(F)(F)F)C1` [Example 14, {3-[3-(7-chloro-1,6-naphthyridin-5-yl)-1H-pyrazol-1-yl]-1-(2,2,2-trifluoroethyl)azetidin-3-yl}acetonitrile]: the IC50 at JAK2 is greater than 10000 nM; at JAK1, 8960 nM; on JAK3, greater than 10000 nM; on TYK2, 1470 nM.
Consider `N#CCC1(n2ccc(-c3nccc4ncccc34)n2)CN(CC(F)(F)F)C1` [Example 15, {3-[3-(1,6-naphthyridin-5-yl)-1H-pyrazol-1-yl]-1-(2,2,2-trifluoroethyl)azetidin-3-yl}acetonitrile], for which the IC50 was greater than 10000 nM at JAK2, greater than 10000 nM on JAK1, greater than 10000 nM on JAK3 and 7680 nM at TYK2.
As to `N#CCC1(n2ccc(-c3nc(-c4cc[nH]n4)cc4ncccc34)n2)CN(CC(F)(F)F)C1` [Example 16, [3-{3-[7-(1H-pyrazol-3-yl)-1,6-naphthyridin-5-yl]-1H-pyrazol-1-yl}-1-(2,2,2-trifluoroethyl)azetidin-3-yl]acetonitrile], the IC50 is 431 nM on JAK2, 475 nM on JAK1, greater than 10000 nM at JAK3 and 23 nM on TYK2.
Turning to `CS(=O)(=O)N1CC(CC#N)(n2ccc(-c3nc(-c4ccn[nH]4)cc4ncccc34)n2)C1` [Example 17, [1-(methylsulfonyl)-3-{3-[7-(1H-pyrazol-5-yl)-1,6-naphthyridin-5-yl]-1H-pyrazol-1-yl}azetidin-3-yl]acetonitrile], the IC50 on JAK2 is 464 nM; on JAK1, 1020 nM; at JAK3, greater than 10000 nM; on TYK2, 44 nM.
For `N#CCC1(n2ccc(-c3nc(-c4ccn[nH]4)cc4ncccc34)n2)CN(S(=O)(=O)C2COC2)C1` [Example 19, [1-(oxetan-3-ylsulfonyl)-3-{3-[7-(1H-pyrazol-5-yl)-1,6-naphthyridin-5-yl]-1H-pyrazol-1-yl}azetidin-3-yl]acetonitrile] the same measures were 188 nM, 175 nM, 9910 nM and 26 nM.
The like results for `N#CC[C@]1(n2ccc(-c3nc(-c4ccn[nH]4)cc4ncccc34)n2)C[C@H](C#N)C1` [Example 20, trans-3-(cyanomethyl)-3-{3-[7-(1H-pyrazol-5-yl)-1,6-naphthyridin-5-yl]-1H-pyrazol-1-yl}cyclobutanecarbonitrile] were, in that order, 240 nM, 381 nM, greater than 10000 nM and 25 nM.
As for `Cn1ncc(-c2cc(-c3cnn([C@]4(CC#N)C[C@@H](C#N)C4)n3)c3cccnc3c2)c1C(N)=O` [Example 335, 4-(5-{2-[trans-3-cyano-1-(cyanomethyl)cyclobutyl]-2H-1,2,3-triazol-4-yl}quinolin-7-yl)-1-methyl-1H-pyrazole-5-carboxamide], the IC50 on JAK2 was greater than 10000 nM; on TYK2, 5270 nM.
For the compound `N#CC[C@]1(n2ncc(-c3cc(-c4cncc(N)n4)cc4ncccc34)n2)C[C@H](C#N)C1` [Example 397, trans-3-{4-[7-(6-aminopyrazin-2-yl)quinolin-5-yl]-2H-1,2,3-triazol-2-yl}-3-(cyanomethyl)cyclobutanecarbonitrile], the IC50 at JAK2 (JAK Caliper enzyme assay) is 8950 nM; on JAK1 (JAK Caliper enzyme assay), greater than 10000 nM; at JAK3 (JAK Caliper enzyme assay), greater than 10000 nM.
Turning to `COc1nc(-c2cc(-c3cnn([C@]4(CC#N)C[C@H](C#N)C4)c3)n3ccnc3c2)ccc1N` [Example 471, cis-3-{4-[7-(5-amino-6-methoxypyridin-2-yl)imidazo[1,2-a]pyridin-5-yl]-1H-pyrazol-1-yl}-3-(cyanomethyl)cyclobutanecarbonitrile], the IC50 at JAK1 (JAK Caliper enzyme assay) was 631 nM; on JAK3 (JAK Caliper enzyme assay), greater than 10000 nM; at TYK2 (JAK Caliper enzyme assay), 33 nM.
Take `Cn1cc(-c2cc(-c3ccn(C4(CC#N)CN(CC(F)(F)F)C4)n3)n3ccnc3c2)cn1` [Example 472, [3-{3-[7-(1-methyl-1H-pyrazol-4-yl)imidazo[1,2-a]pyridin-5-yl]-1H-pyrazol-1-yl}-1-(2,2,2-trifluoroethyl)azetidin-3-yl]acetonitrile]: the half-inhibitory concentration (IC50) was greater than 10000 nM at JAK1 (JAK Caliper enzyme assay), greater than 10000 nM at JAK3 (JAK Caliper enzyme assay) and 5670 nM on TYK2 (JAK Caliper enzyme assay).
